In PMC6130543, “Immunomodulatory activities of isolated compounds from the root-bark of Cussonia arborea” (Pharmaceutical Biology, 2017):
Values after ≈ are worked out from the molar mass of the structure shown. Like-named read-outs stand apart in the source and are kept apart here.

Columns and labels:
MTT cytotoxicity assay = type: cell-based; conditions: mouse
Procedure: (§1) Cytotoxicity of test compounds on NIH-3T3 fibroblast cells (ATCC, Manassas, VA, USA) was evaluated by using the standard MTT colorimetric assay. Briefly 100 μL of 5 × 10^4 cells/mL in Dulbacco’s modified eagles medium (DMEM) supplemented with 10% foetal bovine serum (FBS) were plated into 96-wells flat bottom plate and incubated overnight at 37 °C in 5% CO2. Three different concentrations of test compound (1, 10 and 100 µg/mL) were added to the plate in triplicates and incubated for 48 h. 0.5 mg/mL MTT (50 µL) was added to each well, the plate was then further incubated for 4 h. MTT was aspirated and 100 µL of dimethyl sulfoxide (DMSO) was then added to each well. The extent of MTT reduction to formazan within cells was calculated by measuring the absorbance at 540 nm, using spectrophotometer (Spectra Max plus, Molecular Devices, CA, USA). The cytotoxic activity was recorded as concentration causing 50% growth inhibition (IC50) for 3T3 cells. Cycloheximide was used as standard drug.

[1] = system: serum opsonized zymosan activated whole blood phagocytes (intracellular ROS production); assay: Oxidative burst assay (luminol-enhanced chemiluminescence); type: cell-based, human; conditions: for IC50: read-out: ROS inhibition (IC50± SD µg/mL); for inhibition of production of ROS (in words): zymosan activated whole blood phagocytes, 1-100 µg/mL
[2] = system: phytoheamagglutinin (PHA) activated T-cells; assay: 3H-Thymidine incorporated T-cell proliferation assay; type: cell-based, human; conditions: for IC50: read-out: T-cell proliferation inhibition (IC50± SD µg/mL); for inhibition of T-cell proliferation (in words): PHA activated T-cells, 1-100 µg/mL
Procedure: Lymphocytes were isolated from human heparinized blood. Briefly 10 mL of blood was aseptically collected in heparin containing tube from healthy volunteer. Blood was then mixed with equal volume (1:1) of incomplete RPMI (Roswell Park Memorial Institute) media in 50 mL sterile falcon tube. Lymphocyte separation media (LSM) (5 mL) was added into two sterile 15 mL falcon tubes and 10 mL of the mixture containing blood and RPMI was gently layered on LSM in each tube. Tubes were then centrifuged at 400 g for 20 min at room temperature. The buffy layer appeared at the interface of LSM and plasma was carefully collected and washed at 4 °C for 10 min at 300 g. The supernatant was discarded and pellet containing peripheral blood mononuclear cells (PBMNCs) was collected. Cell viability and counting was performed using trypan blue dye. ^3H-Thymidine incorporated T-cell proliferation assay was performed as described by […] et al. ([2009]). […] After that 50 μL of isolated PBMNCs were added at a concentration of (2 × 10^6 cell/mL). Cells were then stimulated by adding 50 μL of 7.5 μg/mL […]) which acts as mitogen only for T-cells among other PBMNCs. […] The wells received 50 μL cells and 150 μL of 5% FCS/RPMI served as negative control where as positive control contains 50 μL cells, 50 μL of PHA-L and 100 μL of 5% FCS/RPMI. […] Plates were then incubated for 72 h at 37 °C in 5% CO2 incubator. After 72 h, cultures were pulsed with 25 μL of 0.5 μCi/well ^3H-thymidine [Hartmann Analytic, Braunschweig, Germany], and plates were further incubated for 18 h. After incubation cells were harvested using a glass fibre filter and cell harvester [Inotech, Dottikon, Switzerland]. The level of the ^3H-thymidine incorporated into the cells was measured by a LS65000 liquid scintillation counter [Beckman coulter, Fullerton, CA, USA]. Results were expressed as mean count per minutes (CPM). The 50% inhibitory concentration (IC50) values were calculated for all tested compounds.

NIH-3T3 fibroblast cells = assay: MTT cytotoxicity assay; type: cell-based; conditions: MTT, 48 h; three doses (1, 10 and 100 µg/mL); mean ± SD of three determinations
Procedure: as §1

[3] = system: whole blood lymphocyte proliferation; parameters: method as in Magee et al. [2002]; conditions: similar work; ref Magee et al. [2002]; cited from earlier work
[4] = MTT, 48 h, three doses (1, 10 and 100 µg/mL), mean ± SD of three determinations, read-out: Cytotoxicity on NIH 3T3-cells (IC50± SD µg/mL)
[5] = zymosan activated human whole blood phagocytes, luminol probe, three doses (1, 10 and 100 µg/mL), mean ± SD of three determinations
[6] = T-cell, PHA-L activated human T-cells, 72 h + 18 h 3H-thymidine, three doses (1, 10 and 100 µg/mL), mean ± SD of three determinations

`C[C@@H]1C[C@@H]([C@H](O)CC2CC(=O)NC(=O)C2)C(=O)[C@@H](C)C1` [Cyclohexamide, Cycloheximide, reference compound] gave an IC50 at 48 h (MTT cytotoxicity assay; [4]) of 0.13 ± 0.02 µg/mL (≈ 0.462 µM).

With `CC1(C)CC[C@]2(C(=O)O)CC[C@]3(C)C(=CC[C@@H]4[C@@]5(C)CC[C@H](O)C(C)(C)[C@@H]5CC[C@]43C)[C@@H]2C1` [Compound 2, 3β-hydroxylolean-12-en-28-oic] the IC50 [1, 5] was 37.5 ± 0.1 µg/mL, the IC50 [2, 6] was 12.6 ± 0.4 µg/mL and the IC50 at 48 h (MTT cytotoxicity assay; NIH-3T3 fibroblast cells, MTT, 48 h, three doses (1, 10 and 100 µg/mL), mean ± SD of three determinations, read-out: Cytotoxicity on NIH 3T3-cells (IC50± SD µg/mL)) was > 100 µg/mL.

With `CC1(C)CC[C@]2(C(=O)O)CC[C@]3(C)C(=CC[C@@H]4[C@@]5(C)CC[C@H](O)[C@@](C)(CO)[C@@H]5CC[C@]43C)[C@@H]2C1` [Compound 1, 3, 23-dihydroxy-12-oleanen-28-oic acid] the IC50 [1, 5] was 24.4 ± 4.3 µg/mL, the “inhibition of T-cell proliferation (in words)” value [2] was “no inhibition” and the IC50 [2, 6] was > 100 µg/mL. For the same compound, the IC50 at 48 h (MTT cytotoxicity assay) was > 100 µg/mL.

For `CC[C@H](/C=C/[C@@H](C)[C@H]1CC[C@H]2[C@@H]3CC=C4C[C@@H](O[C@@H]5O[C@H](CO)[C@@H](O)[C@H](O)[C@H]5O)CC[C@]4(C)[C@H]3CC[C@]12C)C(C)C` [Compound 4, 3-O-β-D-glucopyranosyl stigmasterol], the “ROS inhibition (IC50± SD µg/mL)” value [1, 5] was >100 µg/mL, the “inhibition of production of ROS (in words)” value [1] was “did not inhibit” and the “inhibition of T-cell proliferation (in words)” value [2] was “no inhibition”. For the same compound, the “T-cell proliferation inhibition (IC50± SD µg/mL)” value ([2]; PHA-L activated human T-cells, 72 h + 18 h 3H-thymidine, three doses (1, 10 and 100 µg/mL), mean ± SD of three determinations) was >100 µg/mL and the “Cytotoxicity on NIH 3T3-cells (IC50± SD µg/mL)” value (NIH-3T3 fibroblast cells) was >100 µg/mL.

For `CC(C)Cc1ccc(C(C)C(=O)O)cc1` (centres unmarked) [Ibuprofen, reference compound], the IC50 [1, 5] was 11.2 ± 1.9 µg/mL.

In the case of `CC[C@H](/C=C/[C@@H](C)[C@H]1CC[C@H]2[C@@H]3CC=C4C[C@@H](O)CC[C@]4(C)[C@H]3CC[C@]12C)C(C)C` [Compound 3, stigmasterol], the IC50 [1, 5] is reported as > 100 µg/mL, the “inhibition of production of ROS (in words)” value [1] is reported as “did not inhibit” and the IC50 (MTT cytotoxicity assay; [4]) is reported as > 100 µg/mL.

For `C[C@]12C=CC(=O)C=C1CC[C@@H]1[C@@H]2[C@@H](O)C[C@@]2(C)[C@H]1CC[C@]2(O)C(=O)CO` [Prednisolone, prednisolone, reference compound], the “IC50 of prednisolone (lymphocyte proliferation)” value [3] is listed as 0.0388 µg/mL, the inhibition at 0.62 µg/mL ([2]; Homo sapiens, T-cell, at lowest tested concentration (0.62 µg/mL), PHA activator) is listed as 64.3 ± 2% and the IC50 [2, 6] is listed as < 0.62 µg/mL.
